One assay has as its system HCV 1b-Con1 replicon. Nature of the assay: HCV 1b-Con1 replicon assay in the presence of 5% FBS (luciferase reporter). The format is cell-based. The conditions noted are these: Hepatitis C virus. Background: A replicon is a self-replicating genome or part of one, used to study replication in cells.
In the next assay the test system is HCV genotype 1b replicon. Nature of the assay: HCV genotype 1b replicon assay. It counts as cell-based, Hepatitis C virus. The note with it: Hepatitis C virus, wild-type replicon, in the absence of FBS; read-out: EC50 (nM) 1b WT. The text has this: (§1) [drawing 14] employs a biphenyl linker between the imidazole moieties. See WO2008021927(BMS). The EC50 values of BMS-790052 against different HCV genotypes were shown by Nettles et al., “BMS-790052 is a First-in-class Potent Hepatitis C Virus (HCV) NS5A Inhibitor for Patients with Chronic HCV Infection: Results from a Proof-of-concept Study”, 59th Annual Meeting of the American Association for the Study of Liver Diseases (Oct. 31-Nov. 1, 2008, San Francisco, Calif.; www.natap.org/2008/AASLD/AASLD_06.htm). […] See also Gao et al., NATURE 465:96-100 (2010). The compounds in Table 1 use different linkers between the imidazole moieties. Table 1 depicts the EC50 values of these compounds when tested using respective replicon assays in the presence of 5% (v/v) fetal bovine serum (FBS).
(§2) Table 2 compares compounds containing unsubstituted benzimidazole to those containing halo-substituted benzimidazole. Anti-viral activities were assessed using wild-type replicons (e.g., 1b WT or 1a WT) as well as replicons containing specific NS5A mutations (e.g., 1b L28T, 1b Y93H, 1a L31V, 1a Y93C, 1a M28V, or 1a Q30E) in the absence of FBS.
(§3) Table 3 compares compounds with different linkers between the benzimidazole moieties. Anti-viral activities were determined using 1a and 1b replicon assays. “HP” refers to human plasma. […] As compared to the phenyl linker

In assay [1] the test system is HCV 1b replicon containing NS5A mutation L28T. Nature of the assay: HCV 1b L28T replicon assay. The format is cell-based. The conditions noted are these: Hepatitis C virus, read-out: EC50 (nM) 1b L28T. The protocol: as §2
The subject of assay [2] is HCV 1b replicon containing NS5A mutation Y93H. Nature of the assay: HCV 1b Y93H replicon assay. The format is cell-based, Hepatitis C virus. The conditions noted are these: Hepatitis C virus, read-out: EC50 (nM) 1b Y93H. The protocol:
as §2

The test system of a further assay is HCV genotype 1a replicon. Put plainly: HCV genotype 1a replicon assay. It counts as cell-based, Hepatitis C virus. The conditions noted are these: Hepatitis C virus, wild-type replicon, in the absence of FBS; read-out: EC50 (nM) 1a WT.
Excerpt: as §1, §2, §3

For assay [3], the system named is HCV 1a replicon containing NS5A mutation Y93C. Put plainly: HCV 1a Y93C replicon assay. It counts as cell-based. The note with it: Hepatitis C virus, read-out: EC50 (nM) 1a Y93C. The procedure: as §2
The subject of assay [4] is HCV 1a replicon containing NS5A mutation L31V. Put plainly: HCV 1a L31V replicon assay. The conditions noted are these: for EC50: Hepatitis C virus, read-out: EC50 (nM) 1a L31V. The format is cell-based, Hepatitis C virus. The protocol: as §2
For assay [5], the system named is HCV 1a replicon containing NS5A mutation M28V. Put plainly: HCV 1a M28V replicon assay. The conditions noted are these: Hepatitis C virus, read-out: EC50 (nM) 1a M28V. The format is cell-based. The procedure:
as §2

Assay [6] deals with HCV 1a replicon containing NS5A mutation Q30E. Nature of the assay: HCV 1a Q30E replicon assay. The format is cell-based. The note with it: Hepatitis C virus, read-out: EC50 (nM) 1a Q30E. The procedure:
as §2

In the case of `COC(=O)N[C@H](C(=O)N1C(c2nc3cc([C@H]4CC[C@H](c5ccc6[nH]c([C@@H]7C[C@@H]8CCC[C@@H]8N7C(=O)[C@@H](NC(=O)OC)C(C)C)nc6c5)N4c4ccc(C(C)(C)C)cc4)ccc3[nH]2)C[C@@H]2CCC[C@@H]21)C(C)C` (stereo partly drawn) [Example 4.19, methyl{(2S)-1-[(2S,3aS,6aS)-2-{5-[(2R,5R)-1-(4-tert-butylphenyl)-5-{2-[(3aS,6aS)-1-{(2S)-2-[(methoxycarbonyl)amino]-3-methylbutanoyl}octahydrocyclopenta[b]pyrrol-2-yl]-1H-benzimidazol-5-yl}pyrrolidin-2-yl]-1H-benzimidazol-2-yl}hexahydrocyclopenta[b]pyrrol-1(2H)-yl]-3-methyl-1-oxobutan-2-yl}carbamate], the EC50 with HCV 1b-Con1 replicon is < 0.1 nM.

Take `COC(=O)NC(C(=O)N1CCCC1c1nc2cc(-c3ccc(-c4ccc5[nH]c([C@@H]6CCCN6C(=O)[C@@H](NC(=O)OC)C(C)C)nc5c4)cc3)ccc2[nH]1)C(C)C` (stereo partly drawn): the EC50 with HCV genotype 1b replicon was 0.01 nM; in assay [1], 2.7 nM; in [2] it was 0.9 nM; in the assay with HCV genotype 1a replicon, 0.09 nM; in [3] it was 40 nM; in assay [4], 36 nM. The EC50 in [5] was found to be 1 nM; in assay [6], 40 nM.

Regarding `COC(=O)N[C@H](C(=O)N1CCC[C@H]1c1nc2cc([C@H]3CC[C@H](c4ccc5[nH]c([C@@H]6CCCN6C(=O)[C@@H](NC(=O)OC)C(C)C)nc5c4)N3c3ccc(N4CCCCC4=O)cc3)ccc2[nH]1)C(C)C` [Example 1.2], the EC50 in the assay with HCV 1b-Con1 replicon was > 10000 nM.

Regarding `COC(=O)N[C@H](C(=O)N1C(c2nc3cc([C@H]4CCC(c5ccc6[nH]c([C@@H]7C[C@@H]8CCC[C@@H]8N7C(=O)[C@@H](NC(=O)OC)C(C)C)nc6c5)N4c4cc(F)c(N5CCCCC5)c(F)c4)ccc3[nH]2)C[C@@H]2CCC[C@@H]21)C(C)C` (stereo partly drawn) [Example 4.18], the EC50 with HCV 1b-Con1 replicon was < 0.1 nM.

Regarding `COC(=O)N[C@H](C(=O)N1CCCC1c1nc2cc([C@H]3CCC(c4cc5nc([C@@H]6CCCN6C(=O)[C@@H](NC(=O)OC)C(C)C)[nH]c5cc4F)N3c3cnc(N4CCC(c5ccccc5)CC4)nc3)c(F)cc2[nH]1)C(C)C` (stereo in doubt) [Example 3.46, methyl{(2S)-1-[(2S)-2-(6-fluoro-5-{(2R,5S)-5-{6-fluoro-2-[(2S)-1-{(2S)-2-[(methoxycarbonyl)amino]-3-methylbutanoyl}pyrrolidin-2-yl]-1H-benzimidazol-5-yl}-1-[2-(4-phenylpiperidin-1-yl)pyrimidin-5-yl]pyrrolidin-2-yl}-1H-benzimidazol-2-yl)pyrrolidin-1-yl]-3-methyl-1-oxobutan-2-yl}carbamate], in the assay with HCV 1b-Con1 replicon, the EC50 was < 0.1 nM.

In the case of `CC(C)(C)OC(=O)NCC(=O)N1CCC[C@H]1c1nc2cc([C@@H]3CC[C@@H](c4ccc5[nH]c([C@@H]6CCCN6C(=O)CNC(=O)OC(C)(C)C)nc5c4)N3c3ccc(N4CCCCC4)c(F)c3)ccc2[nH]1` [Example 3.14, tert-butyl {2-[(2S)-2-(5-{(2S,5S)-5-{2-[(2S)-1-{[(tert-butoxycarbonyl)amino]acetyl}pyrrolidin-2-yl]-1H-benzimidazol-5-yl}-1-[3-fluoro-4-(piperidin-1-yl)phenyl]pyrrolidin-2-yl}-1H-benzimidazol-2-yl)pyrrolidin-1-yl]-2-oxoethyl}carbamate], the EC50 in the assay with HCV 1b-Con1 replicon is > 10000 nM.

Regarding `COC(=O)N[C@H](C(=O)N1CCC[C@H]1c1nc2c(F)cc(-c3ccc(-c4cc(F)c5nc([C@@H]6CCCN6C(=O)[C@@H](NC(=O)OC)C(C)C)[nH]c5c4)cc3)cc2[nH]1)C(C)C`, the EC50 in the assay with HCV genotype 1b replicon came out at 0.004 nM; in [1], 4.3 nM; in [2], 2.4 nM; in the assay with HCV genotype 1a replicon, 0.26 nM; in assay [3], 34 nM; in assay [4], 5.5 nM. Besides, the EC50 is 1.8 nM in assay [5] and 59 nM in [6].

Turning to `COC(=O)N[C@H](C(=O)N1CCC[C@H]1c1nc2cc(F)c(-c3ccc(-c4c(F)cc5nc([C@@H]6CCCN6C(=O)[C@@H](NC(=O)OC)C(C)C)[nH]c5c4F)cc3)c(F)c2[nH]1)C(C)C`, the EC50 with HCV genotype 1b replicon is 0.005 nM; in [1], > 10 nM; in [2] it was 5.7 nM; with HCV genotype 1a replicon, 0.28 nM; in assay [3], 103 nM; in assay [4], 33 nM. Moreover, the EC50 worked out at 11.6 nM in [5] and 306 nM in assay [6].

`COC(=O)N[C@H](C(=O)N1CCC[C@H]1c1nc2cc(C3CC[C@H](c4ccc5[nH]c([C@@H]6CCCN6C(=O)[C@@H](NC(=O)OC)C6CCOCC6)nc5c4)N3c3cc(F)c(N4CCCCC4)c(F)c3)ccc2[nH]1)C1CCOCC1` (stereo in doubt) [Example 3.18, dimethyl({(2R,5R)-1-[3,5-difluoro-4-(piperidin-1-yl)phenyl]pyrrolidine-2,5-diyl}bis{1H-benzimidazole-5,2-diyl(2S)pyrrolidine-2,1-diyl[(1S)-2-oxo-1-(tetrahydro-2H-pyran-4-yl)ethane-2,1-diyl]})biscarbamate]: the EC50 in the assay on HCV 1b-Con1 replicon was < 0.1 nM.

Regarding `COC(=O)N[C@H](C(=O)N1CCC[C@H]1c1nc2cc(C3CC[C@H](c4cc5nc([C@@H]6CCCN6C(=O)[C@@H](NC(=O)OC)C(C)C)[nH]c5cc4F)N3c3cc(F)c(N4CC(C)CC(C)C4)c(F)c3)c(F)cc2[nH]1)C(C)C` (stereo partly drawn) [Example 2.16, methyl{(2S)-1-[(2S)-2-{5-[(5R)-1-[4-(3,5-dimethylpiperidin-1-yl)-3,5-difluorophenyl]-5-{6-fluoro-2-[(2S)-1-{(2S)-2-[(methoxycarbonyl)amino]-3-methylbutanoyl}pyrrolidin-2-yl]-1H-benzimidazol-5-yl}pyrrolidin-2-yl]-6-fluoro-1H-benzimidazol-2-yl}pyrrolidin-1-yl]-3-methyl-1-oxobutan-2-yl}carbamate], the EC50 in the assay on HCV 1b-Con1 replicon was < 0.1 nM.

`COC(=O)N[C@H](C(=O)N1CCC[C@H]1c1nc2cc(F)c(-c3ccc(-c4cc5[nH]c([C@@H]6CCCN6C(=O)[C@@H](NC(=O)OC)C(C)C)nc5cc4F)cc3)cc2[nH]1)C(C)C`: the EC50 was 0.003 nM with HCV genotype 1b replicon; 1.8 nM in assay [1]; 0.5 nM in assay [2]; 0.14 nM with HCV genotype 1a replicon; 26 nM in assay [3]; 109 nM in assay [4]. The EC50 in [5] came out at 2.4 nM; in assay [6], 119 nM.

As to `COC(=O)N[C@H](C(=O)N1CCC[C@H]1c1nc2ccc(-c3ccc(-c4ccc5nc([C@@H]6CCCN6C(=O)[C@@H](NC(=O)OC)C(C)C)[nH]c5c4F)cc3)c(F)c2[nH]1)C(C)C`, the EC50 with HCV genotype 1b replicon is 0.007 nM; in assay [1], > 10 nM; in assay [2], 3.6 nM; with HCV genotype 1a replicon, 0.1 nM; in assay [3], 141 nM; in assay [4], 80 nM. The EC50 in [5] was determined as 5.8 nM; in [6], 52 nM.

On to `COC(=O)N[C@H](C(=O)N1CCCC1c1nc2c(F)cc(-c3ccc(-c4cc(F)c5nc([C@@H]6CCCN6C(=O)[C@@H](NC(=O)OC)C(C)C)[nH]c5c4)cc3)cc2[nH]1)C(C)C` (stereo partly drawn), for which, in assay [4] (compared with unsubstituted benzimidazole reference compound of Table 2), the “activity against HCV variants containing NS5A mutations (e.g., 1a L31V)” value was “better activity”.

As usually defined, the EC50 is the concentration giving half of the maximal effect.
